Non-standard residues stand in square brackets, D forms with d. Residues, ends and D or L forms follow the SMILES beside them. Tyr(3-NO2) = N[C@@H](Cc1ccc(O)c([N+](=O)[O-])c1)C(=O)O; 2Abz = Nc1ccccc1C(=O)O
Experiments:
[1] = Cytotoxic effects, tetrazolium salt (MTT) metabolic assay; assay type: cell-based; conditions: read-out: TC50 (the source's name)
Method: In conjunction with the appropriate starting materials and intermediates, the procedures of examples 1 to 11 can be used to prepare other compounds of formula 1. Examples of compounds thus prepared are listed in the following Tables I, II and III together with mass spectrum data for the compounds, and results from the assays A and B of example 12. Cytotoxic effects noted as TC50 in the following tables were determined according to the tetrazolium salt (MTT) metabolic assay, F. Denizot and F. Lang, J. Immun. Meth., 1986, 89, 271.

[2] = tested on: HCMV (strain AD169, ATCC VR-538); test: Plaque Reduction Assay (PRA); assay type: cell-based, human cytomegalovirus (HCMV); conditions: Human betaherpesvirus 5, AD169, Hs68, 192 h, Hs-68 cells, approximately 50 PFU HCMV AD169, 8 days at 37°; read-out: EC50
Method: B. Plaque Reduction Assay (PRA)
Hs-68 cells (ATCC #CRL 1635) were seeded in 12-well plates at 83,000 cells/well in 1 mL of DMEM medium (Gibco Canada Inc.) supplemented with 10% fetal bovine serum (FBS, Gibco Canada Inc.). The plates were incubated for 3 days at 37° to allow the cells to reach 80-90% confluency prior to the assay.
The medium was removed from the cells by aspiration. The cells were then infected with approximately 50 PFU of HCMV (strain AD169, ATCC VR-538) in DMEM medium supplemented with 5% inactivated FBS (assay medium). (DMEM medium is commercially available and has been described by R. Dulbecco et al., Virology 1959, 8, 396.) The virus was allowed to adsorb to cells for 2 h at 37°. Following viral adsorption, the medium was removed from the wells by aspiration. The cells were then incubated with or without 1 mL of appropriate concentrations of test reagent in assay medium. Occasionally, test compounds were added 24 h post-infection. After 4 days of incubation at 37°, the medium was exchanged with fresh medium containing test compound and 4 days later the cells were fixed with 1% aqueous formaldehyde and stained with a 2% violet solution in 20% ethanol in water. Microscopic plaques were counted using a stereomicroscope. Drug effects were calculated as a percent reduction in the number of plaques in the presence of each drug concentration compared to the number observed in the absence of drug. Ganciclovir was used as a positive control in all experiments.

HCMV NO protease = HCMV NO protease (Human cytomegalovirus, UniProt P16753); test: HCMV NO Protease Assay (inhibition of cleavage of internally quenched fluorogenic peptide substrate); assay type: biochemical; conditions: for IC50: 100 nM HCMV NO protease, 5 μM substrate, 2.5 h at 30°, pH 8
Method: This particular assay determines the ability of a test compound to inhibit the activity of HCMV protease. More specifically, in the assay described herein, the inhibitory activity of the test compound is evaluated on the basis of its ability to interfere with the HCMV No protease cleavage of a fluorogenic peptide substrate which in turn is based on the maturation cleavage site of the enzyme.
A. HCMV NO Protease Assay
Material & Methods: Fluorescence measurements were recorded on a Perkin-Elmer LS-50B spectrofluorimeter equipped with a plate reader accessory. UV measurements were recorded on a Thermomax® microplate reader from Molecular Devices Corporation, Menlo Park, Calif., USA.
HCMV NO protease was assayed with an internally quenched fluorogenic substrate based on the maturation cleavage site (Abz-[…](3-NO2)R--OH, kcat /KM =260 M^-1 s^-1). The fluorescence increase upon cleavage of the Ala-Ser amide bond was monitored using excitation λ=312 nm (slit 2.5 nm) and emission λ=415 nm (slit 5 nm). A protocol adaptable to a 96-well plate format was designed for the determination of IC50 values of inhibitors. […] After this period, enzymatic hydrolysis of the fluorogenic substrate in the absence of inhibitor led to about a 30% conversion. Quenching was not required before fluorescence measurement since the total scanning time by the plate reader accessory was brief relative to the duration of the reaction. The aqueous incubation buffer contained 50 mM tris(hydroxymethyl)aminomethane.HCl pH 8, 0.5M Na2 SO4, 50 mM NaCl, 0.1 mM EDTA, 1 mM tris(2-carboxyethyl)phosphine.HCl, 3% v/v DMSO and 0.05% w/v casein. The final concentrations of HCMV NO protease (expressed in terms of total monomer concentration) and substrate were 100 nM and 5 μM respectively. IC50 values were obtained through fitting of the inhibition curve to a competitive inhibition model using SAS NLIN procedure. The mode of inhibition was determined by measurements of the initial rates (in cuvettes) at various substrate concentrations in the buffer as described above. The IC50 values listed in the following tables the IC50 were obtained according to this assay.

Chain of HCMV NO protease (P16753 1-256): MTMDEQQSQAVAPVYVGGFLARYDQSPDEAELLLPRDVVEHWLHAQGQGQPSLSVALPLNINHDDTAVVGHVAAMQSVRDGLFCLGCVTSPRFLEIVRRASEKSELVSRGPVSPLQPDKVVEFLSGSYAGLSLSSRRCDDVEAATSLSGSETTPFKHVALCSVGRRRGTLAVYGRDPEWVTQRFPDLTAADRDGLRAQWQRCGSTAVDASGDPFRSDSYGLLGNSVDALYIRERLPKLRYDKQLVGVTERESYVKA

Structure (SMILES) | CC50 [1] | EC50 [2] | IC50 (HCMV NO protease) | kcat/KM (HCMV NO protease; fluorogenic substrate of HCMV NO protease)
CC[C@@H](NC(=O)N1C(=O)C[C@@H]1Cc1nnn(C)n1)c1ccccc1 [Entry 222] | > 148 µM | 125 µM | 5 µM | 
CC[C@@H](NC(=O)N1C(=O)C[C@@H]1C(C)C)c1ccccc1 [Entry 213] | > 250 µM | 210 µM | 5.9 µM | 
Cc1ccc(CN(C)C(=O)N2C(=O)C[C@@H]2Cc2ccccc2)cc1 [Entry 129] | > 200 µM | 140 µM | 8.9 µM | 
CN(CCc1ccccc1)C(=O)N1C(=O)C[C@@H]1Cc1ccccc1 [Entry 114] |  |  | 38 µM | 
CN(Cc1ccc(C#N)cc1)C(=O)N1C(=O)C[C@@H]1Cc1ccccc1 [Entry 145] | > 250 µM | 120 µM | 6.1 µM | 
CC(C)c1ccc(CN(C)C(=O)N2C(=O)C[C@@H]2Cc2ccccc2)cc1 [Entry 134] | 200 µM | 150 µM | 6.4 µM | 
CC[C@@H](NC(=O)N1C(=O)C[C@@H]1Cc1ccccc1)c1ccccc1 [Entry 118] | > 250 µM | 180 µM | 2.6 µM | 
CN(Cc1ccc(SC(F)(F)F)cc1)C(=O)N1C(=O)C[C@@H]1Cc1ccccc1 [Entry 137] | > 250 µM | > 250 µM | 6.9 µM | 
CN(C)C(=O)N1C(=O)C[C@@H]1Cc1ccccc1 [Entry 113] |  |  | 50 µM | 
CN(Cc1ccc(C(F)(F)F)cc1)C(=O)N1C(=O)C[C@@H]1Cc1ccccc1 [Entry 135, 4(S)-Benzyl-2-oxoazetidine-1-carboxylic acid N-methyl-N-{{4-(trifluoromethyl)phenyl}methyl}amide] | > 250 µM | 190 µM |  | 
CN(Cc1ccc(C(F)(F)F)cc1)C(=O)N1C(=O)C[C@@H]1Cc1cccs1 [Entry 228] | > 16 µM | > 16 µM | 4.5 µM | 
Cc1ccc(NC(=O)N2C(=O)C[C@@H]2Cc2ccccc2)cc1 [Entry 103] | > 250 µM | > 250 µM | 5.3 µM | 
C[C@@H](NC(=O)N1C(=O)C[C@@H]1Cc1ccccc1)c1cccc2ccccc12 [Entry 105] | > 18 µM | > 18 µM | 7.7 µM | 
O=C1C[C@H](Cc2ccccc2)N1C(=O)Nc1ccc(F)cc1 [Entry 101] | > 250 µM | > 250 µM | 3.7 µM | 
CCCC(NC(=O)N1C(=O)CC1Cc1ccccc1)c1ccccc1 (stereo not drawn) [Entry 121] | > 250 µM | 160 µM | 3.4 µM | 
C[C@@H]1C(=O)N(C(=O)NCc2ccccc2)[C@H]1Cc1ccccc1 [Entry 207, 4(S)-Benzyl-3(S)-methyl-2-oxoazetidine-1-carboxylic acid benzylamide] | > 250 µM | 140 µM | 5.3 µM | 
CC(NC(=O)N1C(=O)CC1Cc1ccccc1)c1ccccc1 (stereo not drawn) [Entry 141] |  |  | 42 µM | 
O=C1C[C@H](Cc2ccc(I)cc2)N1C(=O)NCc1ccncc1 [Entry 211] | > 100 µM | > 100 µM | 8.6 µM | 
COc1c(C)cc(NC(=O)N2C(=O)C[C@@H]2Cc2ccccc2)cc1C [Entry 106] | > 250 µM | 190 µM | 2.4 µM | 
CC[C@@H](C)[C@H]1CC(=O)N1C(=O)N[C@H](CC)c1ccccc1 [Entry 216] | > 250 µM | 110 µM | 4.4 µM | 
C[C@@H]1C(=O)N(C(=O)Nc2ccccc2)[C@H]1Cc1ccccc1 [Entry 203] | > 250 µM | > 250 µM | 0.81 µM | 
O=C1C[C@H](Cc2ccccc2)N1C(=O)N1CCOCC1 [Entry 301] |  |  | 142 µM | 
O=C1C[C@H](Cc2ccccc2)N1C(=O)NCc1cccnc1 [Entry 142] | > 250 µM | > 250 µM | 9.7 µM | 
O=C1C[C@H](Cc2ccccc2)N1C(=O)NCc1ccc2c(c1)OCO2 [Entry 111] | > 150 µM | > 150 µM | 3.7 µM | 

Structure (SMILES) | CC50 [1] | EC50 [2] | IC50 (HCMV NO protease) | kcat/KM (HCMV NO protease; fluorogenic substrate of HCMV NO protease)
CCC(NC(=O)N1C(=O)C[C@@H]1Cc1ccccc1)c1ccncc1 (stereo partly drawn) [Entry 108] |  |  | 28 µM | 
CC[C@@H](NC(=O)N1C(=O)C[C@H]1C(C)(C)C)c1ccccc1 [Entry 215, 4(S)-tert-Butyl-2-oxoazetidine-1-carboxylic acid (1(R)-phenylpropyl)amide] |  |  | 41 µM | 
CN(Cc1ccc([N+](=O)[O-])cc1)C(=O)N1C(=O)C[C@@H]1Cc1nnn(C)n1 [Entry 224] | > 133 µM | 100 µM | 2.7 µM | 
C[C@@H]1C(=O)N(C(=O)N(C)Cc2ccccc2)[C@H]1Cc1ccccc1 [Entry 208] | > 250 µM | 150 µM | 4.2 µM | 
CN(Cc1ccc(N)cc1)C(=O)N1C(=O)C[C@@H]1Cc1ccccc1 [Entry 125] |  |  | 13.4 µM | 
O=C1C[C@H](Cc2ccccc2)N1C(=O)Nc1ccccc1 [Entry 104] | > 250 µM | > 250 µM |  | 
COc1ccc(CN(C)C(=O)N2C(=O)C[C@@H]2Cc2ccccc2)cc1 [Entry 130] | > 250 µM | 110 µM |  | 
O=C1C[C@H](Cc2ccccc2)N1C(=O)NCc1ccccn1 [Entry 143] |  |  | 33 µM | 
CCC(CC)NC(=O)N1C(=O)C[C@@H]1Cc1ccccc1 [Entry 110] |  |  | 38 µM | 
O=C1C[C@H](Cc2ccccc2)N1C(=O)NC1CCc2ccccc21 (stereo partly drawn) [Entry 140] |  |  | 14 µM | 
O=C1C[C@H](Cc2ccccc2)N1C(=O)N1CCc2ccccc2C1 [Entry 302] |  |  | 36 µM | 
O=C1C[C@H](Cc2ccccc2)N1C(=O)N1CCCC1 [Entry 303] |  |  | 63 µM | 
CC(C)C[C@H](NC(=O)[C@H](CCCNC(=N)N)NC(=O)[C@H](CO)NC(=O)[C@H](CO)NC(=O)[C@H](C)NC(=O)[C@H](CC(N)=O)NC(=O)[C@@H](NC(=O)[C@@H](NC(=O)c1ccccc1N)C(C)C)C(C)C)C(=O)N[C@@H](Cc1ccc(O)c([N+](=O)[O-])c1)C(=O)N[C@@H](CCCNC(=N)N)C(=O)O [reference compound] (H-[2Abz]VVNASSRL[Tyr(3-NO2)]R-OH) |  |  |  | 260 M⁻¹ s⁻¹
CC(c1ccccc1)N(C)C(=O)N1C(=O)CC1Cc1ccccc1 (stereo not drawn) [Entry 120] |  |  | 17.7 µM | 
CCC(c1ccccc1)N(C)C(=O)N1C(=O)CC1Cc1ccccc1 (stereo not drawn) [Entry 123] |  |  | 30 µM | 
C[C@H](c1ccccc1)N(C)C(=O)N1C(=O)C[C@@H]1Cc1ccccc1 [Entry 119] |  |  | 24 µM | 
CN(Cc1ccc(C(F)(F)F)cc1)C(=O)N1C(=O)C[C@@H]1Cc1ncoc1-c1ccccc1 [Entry 220] |  |  | 14 µM | 
CN(Cc1ccccc1)C(=O)N1C(=O)C[C@@H]1Cc1ccccc1 [Entry 112] | > 150 µM | 150 µM |  | 
O=C1C[C@H](Cc2ccccc2)N1C(=O)N1CCCc2ccccc21 [Entry 304] |  |  | 154 µM | 
C[C@@H]1C(=O)N(C(=O)NCc2ccncc2)[C@H]1Cc1ccccc1 [Entry 201] | > 250 µM | 190 µM |  | 
CO[C@@H]1C(=O)N(C(=O)NCc2ccncc2)[C@H]1Cc1ccccc1 [Entry 210, 4(S)-Benzyl-3(S)-methoxy-2-oxoazetidine-1-carboxylic acid (4-pyridinylmethyl)amide] | > 250 µM | 210 µM |  | 
CN(CC(=O)OCc1ccccc1)C(=O)N1C(=O)C[C@@H]1Cc1ccccc1 [Entry 115] |  |  | 11.7 µM | 
CN(Cc1ccc([S+]([O-])C(F)(F)F)cc1)C(=O)N1C(=O)C[C@@H]1Cc1ccccc1 (stereo partly drawn) [Entry 138] | > 250 µM | > 250 µM |  | 

Source: patent publication US6242439A, “Azetidinone derivatives for the treatment of HCMV infections” (Boehringer Ingelheim (Canada) Ltd., priority 1998, dated 2001)
